For experiment [1], the system named is asymmetric di-methyl PABP1 in RKO cells. In words: RKO methylation assay: In Cell Western (ICW) for asymmetric di-methyl PABP1 (PABP1me2a). The settings on record: Homo sapiens, RKO, 48 h, Cellular-based (PABP1me2a) ICW (In Cell Western) assay. An excerpt:
RKO adherent cells were purchased from ATCC (American Type Culture Collection), Manassas, Va., USA. DMEM/Glutamax medium, penicillin-streptomycin, heat inactivated fetal bovine serum, 0.05% trypsin and D-PBS were purchased from Life Technologies, Grand Island, N.Y., USA. Odyssey blocking buffer, 800CW goat anti-rabbit IgG (H+L) antibody, and Licor Odyssey infrared scanner were purchased from Licor Biosciences, Lincoln, Nebr., USA. Asymmetric di-methyl PABP1 antibody was purchased from Cell Signaling Technology, Danvers, Mass., USA. Methanol was purchased from VWR, Franklin, Mass., USA. 10% Tween 20 was purchased from KPL, Inc., Gaithersburg, Md., USA. Paraformaldehyde (PFA) was purchased from EM Sciences. DRAQ5 was purchased from Biostatus Limited, Leicestershire, UK.
RKO adherent cells were maintained in growth medium (DMEM/Glutamax medium supplemented with 10% v/v heat inactivated fetal bovine serum and 100 units/mL penicillin-streptomycin) and cultured at 37° C. under 5% CO2.
Cell treatment, In Cell Western (ICW) for detection of asymmetric di-methyl PABP1 and DNA content: RKO cells were seeded in assay medium at a concentration of 30,000 cells per mL to a poly-D-lysine coated 384 well culture plate (BD Biosciences 356697) with 50 μL per well. Compound (100 nL) from a 96-well source plate was added directly to 384 well cell plate. Plates were incubated at 37° C., 5% CO2 for 48 hours. After two days of incubation, plates were brought to room temperature outside of the incubator for ten minutes and blotted on paper towels to remove cell media. Cells were fixed for 20 minutes at room temperature by adding 50 ul of 8% PFA followed by aspiration of supernatant with the Biotek EL406 plate washer. Cells were then permeabilized by addition of 50 μL of ice cold 100% methanol directly to each well and incubated for 30 min at room temperature. After 30 min, plates were transferred to a Biotek EL406 plate washer and washed 2 times with 100 μL per well of wash buffer (1×PBS). Next 60 μL per well of Odyssey blocking buffer (Odyssey Buffer with 0.1% Tween 20 (v/v)) were added to each plate and incubated 1 hour at room temperature. Blocking buffer was removed and 20 μL per well of primary antibody was added (asymmetric-methyl PABP1) diluted 1:400 in Odyssey buffer with 0.1% Tween 20 (v/v)) and plates were incubated overnight (16 hours) at 4° C. Plates were washed 5 times with 100 μL per well of wash buffer. Next 20 μL per well of secondary antibody was added (1:800 800CW goat anti-rabbit IgG (H+L) antibody, 1:2000 DRAQ5 in Odyssey buffer with 0.1% Tween 20 (v/v)) and incubated for 1 hour at room temperature. The plates were washed 5 times with 100 μL per well wash buffer then 2 times with 100 μL per well of water. Plates were allowed to dry at room temperature then imaged on the Licor Odyssey machine which measures integrated intensity at 700 nm and 800 nm wavelengths. Both 700 and 800 channels were scanned.
First, the ratio for each well was determined by:
Each plate included fourteen control wells of DMSO only treatment (minimum inhibition) as well as fourteen control wells for maximum inhibition treated with 20 μM of a reference compound. The average of the ratio values for each control type was calculated and used to determine the percent […] for each test well in the plate. Reference compound was serially diluted three-fold in DMSO for a total of nine test concentrations, beginning at 20 μM.
Percent inhibition was determined and IC50 curves were generated using triplicate wells per concentration of compound.

Experiment [2] addresses T1, Human CARM1 (PRMT4) (Homo sapiens, UniProt Q86X55).
T1 construct: Flag-CARM1-His was eluted with 200 ug/ml FLAG peptide in buffer A; made in house; host or cells: HEK 293F cells infected with recombinant baculovirus (pFastBacMam)
T1 sequence (Q86X55 1-585 isoform Q86X55-1): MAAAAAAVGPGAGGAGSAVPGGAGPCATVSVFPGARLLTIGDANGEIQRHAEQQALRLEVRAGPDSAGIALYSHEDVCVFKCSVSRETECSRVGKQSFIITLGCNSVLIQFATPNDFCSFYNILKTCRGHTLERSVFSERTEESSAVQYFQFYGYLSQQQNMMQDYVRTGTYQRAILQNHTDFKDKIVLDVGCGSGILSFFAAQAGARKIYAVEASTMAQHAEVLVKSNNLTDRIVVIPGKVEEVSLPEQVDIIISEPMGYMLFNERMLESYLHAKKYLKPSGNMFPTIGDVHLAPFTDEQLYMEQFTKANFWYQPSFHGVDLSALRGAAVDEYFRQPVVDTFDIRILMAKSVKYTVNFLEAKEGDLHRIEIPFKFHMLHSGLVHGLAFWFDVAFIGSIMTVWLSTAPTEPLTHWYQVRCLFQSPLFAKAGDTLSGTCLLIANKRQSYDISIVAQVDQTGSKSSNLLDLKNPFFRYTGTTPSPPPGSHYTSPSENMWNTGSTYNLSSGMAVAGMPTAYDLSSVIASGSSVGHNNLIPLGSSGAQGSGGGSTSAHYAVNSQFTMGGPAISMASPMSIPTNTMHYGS
In words: CARM1 enzyme assay on peptide substrates (3H-SAM Flashplate). To be noted: Biochemical assay; CARM1 0.25 nM, 3H-SAM 30 nM, peptide 250 nM; read-out: Biochem IC50. An excerpt:
S-adenosylmethionine (SAM), S-adenosylhomocysteine (SAH), bicine, Tween20, dimethylsulfoxide (DMSO), bovine skin gelatin (BSG), sodium butyrate and Tris(2-carboxyethyl)phosphine hydrochloride solution (TCEP) were purchased from Sigma-Aldrich at the highest level of purity possible. ^3H-SAM was purchase from American Radiolabeled Chemicals with a specific activity of 80 Ci/mmol. 384-well streptavidin Flashplates were purchased from PerkinElmer.
Peptide representative of human histone H3 residues 16-30 was synthesized with an N-terminal linker-affinity tag motif and a C-terminal amide cap by 21st Century Biochemicals. […] The sequence was Biot-Ahx-[…]-amide and contained a monomethylated arginine at position 26 (SEQ ID NO.:1).
The gene sequence encoding isoform1 containing a deletion of amino acids 539-561 was amplified subsequently and subcloned into pFastBacMam (Viva Biotech).
Recombinant baculovirus were generated according to Bac-to-Bac kit instructions (Life Technologies). Protein over-expression was accomplished by infecting exponentially growing HEK 293F cell culture at 1.3×10^6 cell/ml with virus (MOI=10) in the presence of 8 mM sodium butyrate. Infections were carried out at 37° C. for 48 hours, harvested by centrifugation, and stored at −80° C. for purification.
Column was washed with 500 mM NaCl in buffer A and Flag-CARM1-His was eluted with 200 ug/ml FLAG peptide in buffer A. Pooled fractions were dialyzed in 20 mM Tris, 150 mM NaCl, 5% glycerol and 1 mM DTT, pH 7.8.
The assays were all performed in a buffer consisting of 20 mM Bicine (pH=7.6), 1 mM TCEP, 0.005% BSG, and 0.002% Tween 20, prepared on the day of use. Compounds in 100% DMSO (1 ul) were spotted into a polypropylene 384-well V-bottom plates (Greiner) using a Platemate Plus outfitted with a 384-channel head (Thermo Scientific). DMSO (1 ul) was added to Columns 11, 12, 23, 24, rows A-H for the maximum signal control and 1 ul of SAH, a known product and inhibitor of CARM1, was added to columns 11, 12, 23, 24, rows I-P for the minimum signal control. A cocktail (40 ul) containing the CARM1 enzyme was added by Multidrop Combi (Thermo-Fisher). The compounds were allowed to incubate with CARM1 for 30 min at room temperature, then a cocktail (10 ul) containing ^3H-SAM and peptide was added to initiate the reaction (final volume=51 ul). The final concentrations of the components were as follows: CARM1 was 0.25 nM, ^3H-SAM was 30 nM, peptide was 250 nM, SAH in the minimum signal control wells was 1 mM, and the DMSO concentration was 2%. The assays were stopped by the addition of non-radiolabeled SAM (10 ul) to a final concentration of 300 uM, which dilutes the ^3H-SAM to a level where its incorporation into the peptide substrate is no longer detectable. 50 ul of the reaction in the 384-well polypropylene plate was then transferred to a 384-well Flashplate and the biotinylated peptides were allowed to bind to the streptavidin surface for at least 1 hour before being washed once with 0.1% Tween20 in a Biotek ELx405 plate washer. The plates were then read in a PerkinElmer TopCount plate reader to measure the quantity of ^3H-labeled peptide bound to the Flashplate surface, measured as disintegrations per minute (dpm) or alternatively, referred to as counts per minute (cpm).
where dpm=disintegrations per minute, cmpd=signal in assay well, and min and max are the respective minimum and maximum signal controls.
where top and bottom are the normally allowed to float, but may be fixed at 100 or 0 respectively in a 3-parameter fit. The Hill Coefficient normally allowed to float but may also be fixed at 1 in a 3-parameter fit. Y is the % inhibition and X is the compound concentration.

Consider `CNC[C@@H](O)COc1ccc(Cl)c(-c2nc(-c3c(C)noc3C)c(C)c(N3C[C@H]4CN(CC(F)F)C[C@@H]4C3)n2)c1` [Example 29], for which the values for the 50% inhibitory concentration (IC50) in experiment [1] and in experiment [2] were 263 nM and 10.2 nM, respectively.
The matching figures for `CNC[C@@H](O)COc1ccc(Cl)c(-c2nc(-c3c(C)noc3C)c(C)c(N3C[C@H]4CN(CC(F)F)C[C@H]4C3)n2)c1` [Example 30]: 166 nM and 7 nM.
The matching figures for `CNC[C@@H](O)COc1ccc(Cl)c(-c2nc(-c3c(C)noc3C)c(C)c(N3C[C@H]4CN(C(=O)C(F)(F)F)C[C@H]4C3)n2)c1` [Example 31]: 2150 nM and 1.4 nM.
The matching figures for `CNC[C@@H](O)COc1ccc(Cl)c(-c2nc(-c3c(C)noc3C)c(C)c(N3CC4(CCN(CC(F)F)C4)C3)n2)c1` [Example 32]: 53 nM and 7 nM.
With `CNC[C@@H](O)COc1ccc(Cl)c(-c2nc(-c3c(C)noc3C)c(C)c(N3CC4(CCN(C(=O)N(C)C)CC4)C3)n2)c1` [Example 33], the concentration for half-maximal inhibition (IC50) was 83 nM in experiment [1] and 7.2 nM in experiment [2].
The matching figures for `CNC[C@@H](O)COc1ccc(Cl)c(-c2nc(-c3c(C)noc3C)c(C)c(N3Cc4c(n(C)c(=O)n(C)c4=O)C3C)n2)c1` (some centres unmarked) [Example 34]: 120 nM and 5.1 nM.
In the same order, the values of `CNC[C@@H](O)COc1ccc(Cl)c(-c2nc(-c3c(C)noc3C)c(C)c(N3Cc4c(n(C)c(=O)n(C)c4=O)C3)n2)c1` [Example 35] are 412 nM and 3.7 nM.
Regarding `CNC[C@@H](O)COc1ccc(Cl)c(-c2nc(-c3c(C)noc3C)c(C)c(N3Cc4cnc(C5CC5)cc4C3)n2)c1` [Example 36], the concentration for half-maximal inhibition (IC50) in experiment [1] is 49 nM; in experiment [2] it was 2.4 nM.
The matching figures for `CCc1cc2c(cn1)CN(c1nc(-c3cc(OC[C@H](O)CNC)ccc3Cl)nc(-c3c(C)noc3C)c1C)C2` [Example 37]: 37 nM and 2.6 nM.
The matching figures for `CNC[C@@H](O)COc1ccc(F)c(-c2nc(-c3c(C)noc3C)c(C)c(N3CC4(CCN(CC(F)F)C4)C3)n2)c1` [Example 38]: 76 nM and 5.7 nM.
The matching figures for `CNC[C@@H](O)COc1ccc(Cl)c(-c2nc(-c3c(C)noc3C)c(C)c(N3Cc4ccc(Cl)nc4C3)n2)c1` [Example 39]: 32 nM and 2 nM.
Take `CNC[C@@H](O)COc1ccc(Cl)c(-c2nc(-c3c(C)noc3C)c(C)c(N3Cc4nc5n(c(=O)c4C3)CCC5)n2)c1` [Example 40]: the IC50 came to 391 nM in experiment [1] and 2.8 nM in experiment [2].
In the same order, the values of `CNC[C@@H](O)COc1ccc(Cl)c(-c2nc(-c3c(C)noc3C)c(C)c(N3CC4(CN(C(=O)N(C)C)C4)C3)n2)c1` [Example 41] are 546 nM and 8.7 nM.
In the same order, the values of `CNC[C@@H](O)COc1ccc(Cl)c(-c2nc(-c3c(C)noc3C)c(C)c(N3CC4(C3)CN(S(C)(=O)=O)C4)n2)c1` [Example 42] are 406 nM and 10.4 nM.
In the same order, the values of `CNC[C@@H](O)COc1ccc(Cl)c(-c2nc(-c3c(C)noc3C)c(C)c(N3CC4(CN(C(=O)OC)C4)C3)n2)c1` [Example 43] are 84 nM and 10 nM.
For `CNC[C@@H](O)COc1ccc(Cl)c(-c2nc(-c3c(C)noc3C)c(C)c(N3Cc4cnc(C)cc4C3)n2)c1` [Example 44], the half-maximal inhibitory concentration (IC50) in experiment [1] stood at 27 nM; in experiment [2], 2.9 nM.
In the same order, the values of `CNC[C@@H](O)COc1ccc(Cl)c(-c2nc(-c3c(C)noc3C)c(C)c(N3CC4(CCN(CC(F)(F)F)C4)C3)n2)c1` [Example 45] are 40 nM and 11.9 nM.
In the same order, the values of `CNC[C@@H](O)COc1ccc(Cl)c(-c2nc(-c3c(C)noc3C)c(C)c(N3CC4(CCN(CC(F)(F)F)CC4)C3)n2)c1` [Example 46] are 35 nM and 17.4 nM.
In the same order, the values of `CNC[C@@H](O)COc1ccc(Cl)c(-c2nc(-c3c(C)noc3C)c(C)c(N3Cc4c(n5c(nc4=O)CCC5)C3)n2)c1` [Example 47] are more than 20000 nM and 6.3 nM.
